System: KRAS-mutant PDC complex spheroid viability
Assay: Anticancer human tumor 186277-243-T-J2-PDC patient-derived colon adenocarcinoma cell line growth inhibition [KRAS2]
Conditions: for IC50: curve of first compound; for viability, T/C: stronger effect = lower value
Outline: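 Combination screen of spheroid viability in tumor-cell co-cultures with endothelial (HUVEC) and mesenchymal stem cell stroma. Each agent was tested in half-log dilutions, topping at clinical Cmax or at 10 microM without a known Cmax.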

[1] = second compound 0.1 µM, first compound 0.0316 µM
[2] = second compound 0.1 µM, first compound 0.1 µM
[3] = second compound 0.1 µM, first compound 0.316 µM
[4] = second compound 0.1 µM, first compound 1 µM
[5] = second compound 0.1 µM, first compound 3.16 µM
[6] = second compound 0.1 µM, first compound 10 µM
[7] = second compound 0.316 µM, first compound 0.0316 µM
[8] = second compound 0.316 µM, first compound 0.1 µM
[9] = second compound 0.316 µM, first compound 0.316 µM
[10] = second compound 0.316 µM, first compound 1 µM
[11] = second compound 0.316 µM, first compound 3.16 µM
[12] = second compound 0.316 µM, first compound 10 µM
[13] = second compound 1 µM, first compound 0.0316 µM
[14] = second compound 1 µM, first compound 0.1 µM
[15] = second compound 1 µM, first compound 0.316 µM
[16] = second compound 1 µM, first compound 1 µM
[17] = second compound 1 µM, first compound 3.16 µM
[18] = second compound 1 µM, first compound 10 µM
[19] = second compound 3.16 µM, first compound 0.0316 µM
[20] = second compound 3.16 µM, first compound 0.1 µM
[21] = second compound 3.16 µM, first compound 0.316 µM
[22] = second compound 3.16 µM, first compound 1 µM
[23] = second compound 3.16 µM, first compound 3.16 µM
[24] = second compound 3.16 µM, first compound 10 µM
[25] = second compound 10 µM, first compound 0.0316 µM
[26] = second compound 10 µM, first compound 0.1 µM
[27] = second compound 10 µM, first compound 0.316 µM
[28] = second compound 10 µM, first compound 1 µM
[29] = second compound 10 µM, first compound 3.16 µM
[30] = second compound 10 µM, first compound 10 µM
[31] = second compound 0.1 µM, first compound 0.01 µM
[32] = second compound 0.316 µM, first compound 0.01 µM
[33] = second compound 1 µM, first compound 0.01 µM
[34] = second compound 3.16 µM, first compound 0.01 µM
[35] = second compound 10 µM, first compound 0.01 µM
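Throughout, for viability, T/C: viability read after seven days of compound exposure; 100% = DMSO vehicle-treated spheroids so lower means less viable.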

Structure (SMILES): CC1OCC2(CCN(c3cnc(Sc4ccnc(N)c4Cl)c(N)n3)CC2)C1N (stereo not given) + CNCc1ccccc1-c1csc(C(C)Nc2nc(C)nc3cc(OC)c(OC)cc23)c1
- IC50 (second compound 0.1 µM): > 10000 nM
- IC50 (second compound 0.316 µM): > 10000 nM
- IC50 (second compound 1 µM): > 10000 nM
- IC50 (second compound 3.16 µM): 1520 nM
- IC50 (second compound 10 µM): < 31.6 nM
- viability, T/C [1]: 96.1%
- viability, T/C [2]: 104%
- viability, T/C [3]: 104%
- viability, T/C [4]: 90.9%
- viability, T/C [5]: 107%
- viability, T/C [6]: 105%
- viability, T/C [7]: 103%
- viability, T/C [8]: 99.8%
- viability, T/C [9]: 111%
- viability, T/C [10]: 108%
- viability, T/C [11]: 104%
- viability, T/C [12]: 84.2%
- viability, T/C [13]: 91.2%
- viability, T/C [14]: 104%
- viability, T/C [15]: 95%
- viability, T/C [16]: 105%
- viability, T/C [17]: 93.2%
- viability, T/C [18]: 60.5%
- viability, T/C [19]: 85.2%
- viability, T/C [20]: 72.8%
- viability, T/C [21]: 102%
- viability, T/C [22]: 71.4%
- viability, T/C [23]: 11.4%
- viability, T/C [24]: 1.07%
- viability, T/C [25]: 0.18%
- viability, T/C [26]: 0.18%
- viability, T/C [27]: 0.17%
- viability, T/C [28]: 0.15%
- viability, T/C [29]: 0.12%
- viability, T/C [30]: 0.15%

Structure (SMILES): CC(=O)OC12COC1CC(O)C1(C)C(=O)C(O)C3=C(C)C(OC(=O)C(O)C(NC(=O)OC(C)(C)C)c4ccccc4)CC(O)(C(OC(=O)c4ccccc4)C21)C3(C)C (stereo not given) + COc1cc2nc(C)nc(NC(C)c3cc(N)cc(C(F)(F)F)c3)c2cc1OC1CCOC1
- IC50 (second compound 0.1 µM): < 10 nM
- IC50 (second compound 0.316 µM): < 10 nM
- IC50 (second compound 1 µM): < 10 nM
- IC50 (second compound 3.16 µM): < 10 nM
- IC50 (second compound 10 µM): < 10 nM
- viability, T/C [31]: 4.45%
- viability, T/C [1]: 5.2%
- viability, T/C [2]: 2.78%
- viability, T/C [3]: 2.85%
- viability, T/C [4]: 2.91%
- viability, T/C [5]: 3.62%
- viability, T/C [32]: 4.29%
- viability, T/C [7]: 3.35%
- viability, T/C [8]: 2.81%
- viability, T/C [9]: 2.36%
- viability, T/C [10]: 2.72%
- viability, T/C [11]: 2.69%
- viability, T/C [33]: 3.08%
- viability, T/C [13]: 4.27%
- viability, T/C [14]: 3.44%
- viability, T/C [15]: 3.47%
- viability, T/C [16]: 3.46%
- viability, T/C [17]: 2.96%
- viability, T/C [34]: 3.01%
- viability, T/C [19]: 2.78%
- viability, T/C [20]: 2.73%
- viability, T/C [21]: 2.51%
- viability, T/C [22]: 2.54%
- viability, T/C [23]: 2.73%
- viability, T/C [35]: 3.2%
- viability, T/C [25]: 3.03%
- viability, T/C [26]: 2.84%
- viability, T/C [27]: 3%
- viability, T/C [28]: 2.42%
- viability, T/C [29]: 2.82%

Structure (SMILES): CN(C)C/C=C/C(=O)Nc1cc2c(Nc3ccc(F)c(Cl)c3)ncnc2cc1O[C@H]1CCOC1 + COc1cc2nc(C)nc(NC(C)c3cc(N)cc(C(F)(F)F)c3)c2cc1OC1CCOC1
- IC50 (second compound 0.1 µM): > 100 nM
- IC50 (second compound 0.316 µM): > 100 nM
- IC50 (second compound 1 µM): > 100 nM
- IC50 (second compound 3.16 µM): > 100 nM
- IC50 (second compound 10 µM): > 100 nM
- viability, T/C (second compound 0.1 µM, first compound 0.000316 µM): 102%
- viability, T/C (second compound 0.1 µM, first compound 0.001 µM): 107%
- viability, T/C (second compound 0.1 µM, first compound 0.00316 µM): 112%
- viability, T/C [31]: 110%
- viability, T/C [1]: 108%
- viability, T/C [2]: 96.8%
- viability, T/C (second compound 0.316 µM, first compound 0.000316 µM): 94.3%
- viability, T/C (second compound 0.316 µM, first compound 0.001 µM): 105%
- viability, T/C (second compound 0.316 µM, first compound 0.00316 µM): 106%
- viability, T/C [32]: 115%
- viability, T/C [7]: 99.2%
- viability, T/C [8]: 89.2%
- viability, T/C (second compound 1 µM, first compound 0.000316 µM): 96.7%
- viability, T/C (second compound 1 µM, first compound 0.001 µM): 93.8%
- viability, T/C (second compound 1 µM, first compound 0.00316 µM): 91%
- viability, T/C [33]: 105%
- viability, T/C [13]: 113%
- viability, T/C [14]: 105%
- viability, T/C (second compound 3.16 µM, first compound 0.000316 µM): 93.4%
- viability, T/C (second compound 3.16 µM, first compound 0.001 µM): 97.9%
- viability, T/C (second compound 3.16 µM, first compound 0.00316 µM): 97.4%
- viability, T/C [34]: 100%
- viability, T/C [19]: 84.4%
- viability, T/C [20]: 79.3%
- viability, T/C (second compound 10 µM, first compound 0.000316 µM): 109%
- viability, T/C (second compound 10 µM, first compound 0.001 µM): 105%
- viability, T/C (second compound 10 µM, first compound 0.00316 µM): 114%
- viability, T/C [35]: 91.2%
- viability, T/C [25]: 81.4%
- viability, T/C [26]: 61.4%

Structure (SMILES): O=C(c1cc(Cc2n[nH]c(=O)c3ccccc23)ccc1F)N1CCN(C(=O)C2CC2)CC1 + COc1cc2nc(C)nc(NC(C)c3cc(N)cc(C(F)(F)F)c3)c2cc1OC1CCOC1
- IC50 (second compound 0.1 µM): 8250 nM
- IC50 (second compound 0.316 µM): 5900 nM
- IC50 (second compound 1 µM): 8780 nM
- IC50 (second compound 3.16 µM): 4490 nM
- IC50 (second compound 10 µM): 872 nM
- viability, T/C [1]: 107%
- viability, T/C [2]: 105%
- viability, T/C [3]: 114%
- viability, T/C [4]: 116%
- viability, T/C [5]: 99.1%
- viability, T/C [6]: 40.1%
- viability, T/C [7]: 105%
- viability, T/C [8]: 102%
- viability, T/C [9]: 107%
- viability, T/C [10]: 116%
- viability, T/C [11]: 67.9%
- viability, T/C [12]: 34.8%
- viability, T/C [13]: 111%
- viability, T/C [14]: 104%
- viability, T/C [15]: 107%
- viability, T/C [16]: 122%
- viability, T/C [17]: 88.2%
- viability, T/C [18]: 45.1%
- viability, T/C [19]: 109%
- viability, T/C [20]: 98.3%
- viability, T/C [21]: 109%
- viability, T/C [22]: 110%
- viability, T/C [23]: 61%
- viability, T/C [24]: 25.1%
- viability, T/C [25]: 102%
- viability, T/C [26]: 101%
- viability, T/C [27]: 81.3%
- viability, T/C [28]: 48.4%
- viability, T/C [29]: 11.5%
- viability, T/C [30]: 10.1%
